Results on 28 compounds are retold here after BindingDB's records for doi:10.1021/jm031016d (University of Athens, 2004).

Experiment [1] addresses Cyclin-dependent kinase 1/G2/mitotic-specific cyclin-B (Marthasterias glacialis, UniProt P15206+Q9DGD3). The experiment is described as follows: Kinase Inhibition Assay. As to conditions: 30 °C.
The target in experiment [2] is T1, Cyclin-dependent kinase 5 activator 1 [99-307] (Homo sapiens, UniProt Q00535).
T1 construct: 99-307
The experiment can be described thus: Kinase Inhibition Assay. To be noted: 30 °C.

In experiment [3] the target is Glycogen synthase kinase-3 alpha/beta (Sus scrofa). The experiment is described as follows: Kinase activities were assayed in buffers containing substrate, enzyme, and inhibitor at 30 °C in the presence of 15 uM ATP/ [gamma-32P] ATP. 32P incorporation was measured with a scintillation counter. The IC50 is the inhibitor concentration, which inhibits 50% of kinase activity that catalyzes the transfer of the terminal phosphate from 32P l.

Some results are limits rather than exact numbers.

T1 sequence (Q15078 99-307): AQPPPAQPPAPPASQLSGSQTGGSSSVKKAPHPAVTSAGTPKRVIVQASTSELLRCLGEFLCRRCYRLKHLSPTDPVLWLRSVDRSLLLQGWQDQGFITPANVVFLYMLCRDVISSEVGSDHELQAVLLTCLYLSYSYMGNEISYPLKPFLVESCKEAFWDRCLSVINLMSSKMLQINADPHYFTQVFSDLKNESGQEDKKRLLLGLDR
T1 sequence (Q00535 whole entry): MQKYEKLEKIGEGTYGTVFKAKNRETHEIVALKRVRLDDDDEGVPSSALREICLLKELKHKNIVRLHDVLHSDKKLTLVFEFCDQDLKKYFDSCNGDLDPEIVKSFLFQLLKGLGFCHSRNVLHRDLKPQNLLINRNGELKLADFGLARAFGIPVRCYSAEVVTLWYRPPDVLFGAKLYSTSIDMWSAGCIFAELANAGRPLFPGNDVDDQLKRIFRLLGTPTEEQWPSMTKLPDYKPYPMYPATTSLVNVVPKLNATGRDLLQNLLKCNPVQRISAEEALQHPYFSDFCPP
Cyclin-dependent kinase 1/G2/mitotic-specific cyclin-B, sequence (Q9DGD3 whole entry): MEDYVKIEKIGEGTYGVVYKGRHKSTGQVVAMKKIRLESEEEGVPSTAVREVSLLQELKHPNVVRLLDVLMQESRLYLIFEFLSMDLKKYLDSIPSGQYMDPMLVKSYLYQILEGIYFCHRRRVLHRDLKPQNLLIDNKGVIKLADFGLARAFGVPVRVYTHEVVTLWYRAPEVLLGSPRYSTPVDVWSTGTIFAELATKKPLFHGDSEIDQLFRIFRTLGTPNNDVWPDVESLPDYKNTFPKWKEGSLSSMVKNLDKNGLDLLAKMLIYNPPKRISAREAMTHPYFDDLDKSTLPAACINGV
Cyclin-dependent kinase 1/G2/mitotic-specific cyclin-B, sequence (P15206 whole entry): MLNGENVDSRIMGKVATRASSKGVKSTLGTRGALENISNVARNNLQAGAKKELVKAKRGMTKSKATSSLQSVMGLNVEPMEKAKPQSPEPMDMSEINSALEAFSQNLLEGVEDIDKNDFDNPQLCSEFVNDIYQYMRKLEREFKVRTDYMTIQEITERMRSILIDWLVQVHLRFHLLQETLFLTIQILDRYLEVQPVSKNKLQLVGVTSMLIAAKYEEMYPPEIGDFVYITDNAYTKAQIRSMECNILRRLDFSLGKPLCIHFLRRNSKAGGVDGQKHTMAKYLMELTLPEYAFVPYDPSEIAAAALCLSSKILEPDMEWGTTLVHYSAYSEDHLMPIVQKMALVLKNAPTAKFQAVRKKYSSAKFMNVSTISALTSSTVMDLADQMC

Turning to `CO/N=C1/C(=C2/C(=O)Nc3cc(Br)ccc32)Nc2ccccc21` [(2 Z,3 E)-6-Bromoindirubin-3-methoxime], the IC50 (commonly the concentration that gives 50% inhibition) in experiment [1] (pH 7.2) was 3700 nM; in experiment [2], 2200 nM; in experiment [3], 30 nM.

`O=C1Nc2cc(I)ccc2/C1=C1/Nc2ccccc2C1=O` [6-iodoindirubin]: the IC50 in experiment [1] (pH 7.2) stood at 1600 nM; in experiment [2] it was 5300 nM; in experiment [3], 55 nM.

With `CN1C(=O)C(c2[nH]c3ccccc3c2N=O)c2ccccc21` (stereo not drawn) [3-[(2Z,3E)-3-(hydroxyimino)-2,3-dihydro-1H-indol-2-ylidene]-1-methyl-2,3-dihydro-1H-indol-2-one], the values for the concentration for half-maximal inhibition (IC50) in experiment [1], in experiment [2] and in experiment [3] were 73000 nM, more than 100000 nM and more than 100000 nM, respectively.

For the compound `O=C1Nc2cc(Br)ccc2/C1=C1/Nc2ccccc2C1=O` [6-bromo-3-[(2Z)-3-oxo-2,3-dihydro-1H-indol-2-ylidene]-2,3-dihydro-1H-indol-2-one], it took 53000 nM to reach half-maximal inhibition in experiment [2] (IC50).

In the case of `C=Cc1ccc2c(c1)NC(=O)/C2=C1\Nc2ccccc2C1=O` [6-vinylindirubin], the half-maximal inhibitory concentration (IC50) in experiment [1] turned out to be 4200 nM; in experiment [2] it was 2400 nM; in experiment [3] it was 240 nM.

In the case of `O=C1Nc2cccc(Cl)c2/C1=C1/Nc2ccccc2C1=O` [4-chloro-3-[(2Z)-3-oxo-2,3-dihydro-1H-indol-2-ylidene]-2,3-dihydro-1H-indol-2-one], the IC50 in experiment [1] is 10000 nM; in experiment [2] it was 10000 nM; in experiment [3], more than 100000 nM.

For the compound `O=C1Nc2cc(Cl)c(Cl)cc2/C1=C1/Nc2ccccc2C1=O` [(2 Z)-5,6-Dichloroindirubin], the results for the IC50 in experiment [1], in experiment [2] and in experiment [3] were 45000 nM, 60000 nM and 30 nM, respectively.

As to `C=Cc1ccc2c(c1)NC(=O)C2c1[nH]c2ccccc2c1N=O` (stereo not drawn) [6-vinylindirubin-3-oxime], the values for the IC50 in experiment [1], in experiment [2] and in experiment [3] were 1200 nM, 420 nM and 60 nM, respectively.

In experiment [2], `CC(=O)ON=C1C(=C2C(=O)Nc3cc(F)ccc32)Nc2ccccc21` [(2 Z,3 E)-6-Fluoroindirubin-3-acetoxime] had an IC50 of 300 nM.

`O=Nc1c(C2C(=O)Nc3cc(F)ccc32)[nH]c2ccccc12` (stereo not drawn) [6-fluoro-3-[(2Z,3E)-3-(hydroxyimino)-2,3-dihydro-1H-indol-2-ylidene]-2,3-dihydro-1H-indol-2-one]: the IC50 came to 320 nM in experiment [1], 150 nM in experiment [2] and 130 nM in experiment [3].

As for `CN1C(=O)/C(=C2\Nc3ccccc3C2=O)c2ccccc21` [1-methyl-3-[(2Z)-3-oxo-2,3-dihydro-1H-indol-2-ylidene]-2,3-dihydro-1H-indol-2-one], the IC50 in experiment [1], in experiment [2] and in experiment [3] was more than 100000 nM each time.

`CC(=O)ON=C1C(=C2C(=O)Nc3ccccc32)Nc2ccccc21` [[(3E)-2-[(3Z)-2-oxo-2,3-dihydro-1H-indol-3-ylidene]-2,3-dihydro-1H-indol-3-ylidene]amino acetate]: the IC50 in experiment [2] is 700 nM.

With `O=Nc1c(C2C(=O)Nc3cc(Br)ccc32)[nH]c2cc(Br)ccc12` (stereo not drawn) [6-bromo-3-[(2Z,3E)-6-bromo-3-(hydroxyimino)-2,3-dihydro-1H-indol-2-ylidene]-2,3-dihydro-1H-indol-2-one], the figures for the IC50 in experiment [1] (pH 7.2), in experiment [2] and in experiment [3] were 17000 nM, 1300 nM and 120 nM, respectively.

In the case of `O=C1Nc2cc(Cl)ccc2/C1=C1/Nc2ccccc2C1=O` [6-chloro-3-[(2Z)-3-oxo-2,3-dihydro-1H-indol-2-ylidene]-2,3-dihydro-1H-indol-2-one], the IC50 in experiment [1] (pH 7.2) is more than 100000 nM; in experiment [2], more than 100000 nM; in experiment [3] it was 140 nM.

In the case of `CC(=O)ON=C1C(=C2C(=O)Nc3cc(I)ccc32)Nc2ccccc21` [(2 Z,3 E)-6-Iodoindirubin-3-acetoxime], the IC50 in experiment [1] amounted to 2200 nM; in experiment [2], 1300 nM; in experiment [3] it was 13 nM.

`O=C1Nc2cc(F)ccc2/C1=C1/Nc2ccccc2C1=O` [6-fluoroindirubin] came in with an IC50 in experiment [2] of 1000 nM.

In the case of `CN1C(=O)C(c2[nH]c3ccccc3c2N=O)c2ccc(Br)cc21` (stereo not drawn) [(2 Z,3 E)-6-Bromo-1-methylindirubin-3-oxime], the IC50 is 92000 nM in experiment [1] (pH 7.2), more than 100000 nM in experiment [2] and more than 100000 nM in experiment [3].

`Cc1cc2c(cc1Br)NC(=O)C2c1[nH]c2ccccc2c1N=O` (stereo not drawn) [6-bromo-3-[(2Z,3E)-3-(hydroxyimino)-2,3-dihydro-1H-indol-2-ylidene]-5-methyl-2,3-dihydro-1H-indol-2-one] yielded an IC50 in experiment [2] of 130 nM.

`O=Nc1c(C2C(=O)Nc3cc(Br)c([N+](=O)[O-])cc32)[nH]c2ccccc12` (stereo not drawn) [6-bromo-3-[(2Z,3E)-3-(hydroxyimino)-2,3-dihydro-1H-indol-2-ylidene]-5-nitro-2,3-dihydro-1H-indol-2-one]: the IC50 in experiment [2] was 150 nM.

In the case of `O=C1Nc2cc(Br)ccc2/C1=C1/Nc2cc(Br)ccc2C1=O` [(2 Z)-6,6 -Dibromoindirubin], the IC50 is more than 100000 nM in experiment [1] (pH 7.2), more than 100000 nM in experiment [2] and 4500 nM in experiment [3].

For the compound `O=Nc1c(C2C(=O)Nc3cc(I)ccc32)[nH]c2ccccc12` (stereo not drawn) [6-iodoindirubin-3-oxime], the IC50 in experiment [2] was 300 nM.

As for `O=C1Nc2cc(Br)c([N+](=O)[O-])cc2[C+]1c1[nH]c2ccccc2c1[O-]` [6-Bromo-5-nitroindirubin], the IC50 in experiment [1] was more than 100000 nM; in experiment [2], more than 100000 nM; in experiment [3], 100 nM.

`C=Cc1ccc2c(c1)NC(=O)C2=C1Nc2ccccc2C1=NOC(C)=O` [[(3E)-2-[(3Z)-6-ethenyl-2-oxo-2,3-dihydro-1H-indol-3-ylidene]-2,3-dihydro-1H-indol-3-ylidene]amino acetate]: the IC50 in experiment [1] was 1600 nM; in experiment [2], 400 nM; in experiment [3], 65 nM.

Take `O=Nc1c(C2C(=O)Nc3cc(Cl)ccc32)[nH]c2ccccc12` (stereo not drawn) [6-chloro-3-[(2Z,3E)-3-(hydroxyimino)-2,3-dihydro-1H-indol-2-ylidene]-2,3-dihydro-1H-indol-2-one]: the IC50 in experiment [1] (pH 7.2) worked out at 650 nM; in experiment [2] it was 100 nM; in experiment [3], 20 nM.

`Cc1cc2c(cc1Br)NC(=O)/C2=C1\Nc2ccccc2C1=O` [6-bromo-5-methylindirubin]: the IC50 in experiment [1] worked out at 30000 nM; in experiment [2], 60000 nM; in experiment [3], 25 nM.

With `CN1C(=O)/C(=C2\Nc3ccccc3C2=O)c2ccc(Br)cc21` [(2 Z)-6-Bromo-1-methylindirubin], the 50% inhibitory concentration (IC50) in experiment [1] (pH 7.2), in experiment [2] and in experiment [3] was more than 100000 nM throughout.

For `CO/N=C1/C(=C2/C(=O)Nc3ccccc32)Nc2ccccc21` [3-[(2Z,3E)-3-(methoxyimino)-2,3-dihydro-1H-indol-2-ylidene]-2,3-dihydro-1H-indol-2-one], the IC50 in experiment [2] is 400 nM.

`CC(=O)ON=C1C(=C2C(=O)Nc3cc(Cl)ccc32)Nc2ccccc21` [6-chloroindirubin-3-acetoxime]: the IC50 in experiment [1] (pH 7.2) was found to be 30000 nM; in experiment [2], 200 nM; in experiment [3] it was 17 nM.
